Data reported in the NIST ThermoML archive (doi:10.1016/j.jct.2017.05.010).
Numbers after ± are expanded uncertainties.

Conditions: 101.33 kPa, Liquid, Single path-length method

CCCCOCCCN [3-butoxy-1-propanamine]
speed of sound (283.15 K): 1387.3 ± 1.7 m/s | speed of sound (288.15 K): 1367.3 ± 1.7 m/s | speed of sound (293.15 K): 1346.7 ± 1.7 m/s | speed of sound (298.15 K): 1326.4 ± 1.7 m/s | speed of sound (303.15 K): 1306.7 ± 1.7 m/s
